Results reported in patent US20220409617A1, “Drug Formulations and Methods of Treatment for Metabolic Disorders” (The Regents of the University of California, priority 2019, published 2022).

Test system: KRAS G12D knock-in MEFs
Test: KRAS-mediated mitochondrial fission in KRAS G12D knock-in MEFs
Format: cell-based, mouse
Details: 893 5 μM
Experimental: 3T3-L1 cells were maintained in DMEM with 10% FBS and 1% penicillin-streptomycin until induced to differentiate. 3T3-L1 pre-adipocytes were differentiated as described in (M. P. Valley, et al., Anal. Biochem. 505: 43-50, 2016, the disclosure of which is incorporated herein by reference) with slight modifications. Briefly, pre-adipocytes were grown to confluence. After 2 d, cells were induced with maintenance media containing 500 μM IBMX (15879, Sigma-Aldrich, St. Louis, Mo.), 1 μM dexamethasone (D4902, Sigma-Aldrich), 5 μg/mL bovine insulin (10516, Sigma-Aldrich), and 5 μM troglitazone (50-115-0786, ApexBio). Media was changed every 2-3 d for 7 d. On day 7 post-induction, media was changed to maintenance media+5 μg/mL bovine insulin. On day 9 post-induction, media was changed to maintenance media. Mature adipocytes were used 12-14 d post-induction for all experiments. […]
MEFs were washed twice with PBS and fixed with 4% paraformaldehyde for 10 min at RT. […] NADH/NADPH autofluorescence was detected with 740 nm excitation and 450±50 nm detectors using a Mai Tai two-photon laser. Fluorescence microscopy was performed on a Zeiss LSM 780 confocal using a 63× oil objective with a […] numerical aperture (NA) or using a Nikon TE2000-S inverted epifluorescence microscope with a 100× oil objective (1.3 NA) and a Photometrics CoolSNAP ES2 monochrome CCD camera. […]

CCCCCCCCc1ccc([C@H]2CCN[C@@H]2CO)cc1.Cl [compound 893]
Correction of KRAS-mediated mitochondrial fission in KRAS G12D MEFs: rapidly corrected KRAS-mediated mitochondrial fission
